Data published in article PMC12263571, “Antiviral effects of mogroside V against porcine reproductive and respiratory syndrome virus in vitro” (Frontiers in Microbiology, 2025).
Like-named read-outs stand apart in the source and are kept apart here.

How the values were obtained:
[1] = tested on: Porcine alveolar macrophages (PAMs); assay: CCK-8 cytotoxicity assay in PAM cells; type: cell-based
Protocol: (§1) The cytotoxicity of MV was assessed using the Cell Counting Kit-8 (CCK-8) assay to determine cell viability. Porcine alveolar macrophages (PAMs) and Marc-145 cells were seeded in 96-well plates and treated with varying concentrations of MV (0, 100, 200, 400 or 800 μM) for 24, 48, 72, and 96 h. Following the manufacturer's protocol, CCK-8 reagent was added to each well, and cells were incubated for 2 h at 37°C under 5% CO2. Absorbance was measured at 450 nm using a microplate reader. Cell viability (%) was calculated using the formula:Cell viability (%) = [OD (sample) – OD (blank)/OD (control) – OD (blank)] × 100%, where OD (blank) represents the background absorbance of cell-free medium, and OD (control) denotes untreated cells.
(§2) The half-maximal inhibitory concentration (IC50) value for MV-mediated cytotoxicity was calculated through nonlinear regression fitting of dose-response curves.

[2] = tested on: immunomodulatory cytokines gene expression in PAMs; assay: RT-qPCR of immunoregulatory factor gene expression in PAMs; type: cell-based, porcine
Marc-145 cells = assay: CCK-8 cytotoxicity assay in Marc-145 cells; type: cell-based
Protocol: as §1, §2

NADC30 strain = assay: Antiviral assay (TCID50, RT-qPCR, IFA) against NADC30 strain in Marc-145 and PAM cells; type: cell-based, porcine reproductive and respiratory syndrome virus; details: for viral titers: co-treatment; for PRRSV N protein expression (IFA): PAMs, pre-treatment
Protocol: (§3) To investigate the stage-specific antiviral effects of mogroside V (MV) and evaluate its ability to inhibit PRRSV replication in Marc-145 and PAM cells, three distinct treatment groups were established for in vitro evaluation: pre-treatment group, post-treatment group, and co-treatment group. Viral replication was assessed through multiple approaches: quantification of viral mRNA copies by RT-qPCR, determination of viral titers using the TCID50 method, and analysis of PRRSV N protein expression via immunofluorescence assay (IFA). The experimental design was as follows:
(§4) Pre-treatment group: to investigate the preventive effect of MV prior to PRRSV infection, Marc-145 or PAM cells were pretreated with MV before viral challenge. Cells in good growth condition were seeded in 6-well plates and cultured until monolayer formation. After removing the old medium, cells were washed twice with PBS, followed by incubation with varying concentrations of MV for 24 h. The drug was then removed, and cells were washed twice with PBS before infection with PRRSV (100 TCID50) for 48 h. Subsequently, viral mRNA copies, viral titers, and PRRSV N protein fluorescence expression were measured to calculate viral inhibition rates.
(§5) Post-treatment group: In order to investigate the effect of MV on PRRSV infection, MV was added after Marc-145 or PAM cells were infected with PRRSV. The cells with good growth status were inoculated in the 6-well cell culture plate. After the cells grew to monolayer, the old medium was discarded and the cells were cleaned twice with PBS. PRRSV (100 TCID50) was inoculated and incubated for 1 h, during which the virus could be shaken repeatedly to fully interact with cells. The virus venom was removed, washed twice with PBS, and incubated with different concentrations of MV for 48 h. After that, the viral mRNA copies and viral titer were detected, the viral inhibition rate was calculated, and the fluorescence expression of PRRSV N protein was observed.
(§6) Co-treatment group: In order to study the direct effect of MV on PRRSV, PRRSV and MV were simultaneously inoculated in Marc-145 or PAM cells for treatment. The cells with good growth status were inoculated in the 6-well cell culture plate. After the cells grew to monolayer, the old medium was discarded and the cells were cleaned twice with PBS. MV at different concentrations was mixed with PRRSV (100 TCID50) and inoculated into Marc-145 and PAM cells for 48 h. After that, the viral mRNA copies and viral titer were detected, viral inhibition rate was calculated, and the fluorescence expression of PRRSV N protein was observed.
(§7) Real-time quantitative PCR (RT-qPCR) was performed to determine PRRSV gene expression levels. Viral RNA was extracted from cell culture supernatants using a commercial viral DNA/RNA extraction kit according to the manufacturer's protocol, with subsequent storage at −80°C until further analysis. RT-qPCR amplification were conducted using TransScript Green One-Step qRT-PCR SuperMix kit.
(§8) The supernatant from 6-well culture plates was collected into 1.5 mL microcentrifuge tubes and stored at −80°C for subsequent analysis. Cells were washed twice with PBS and fixed with ice-cold methanol for 15 min at room temperature. Non-specific binding sites were blocked with 1% BSA containing 0.05% Tween 20 for 30 min at ambient temperature. Cells were then incubated with anti-PRRSV N protein monoclonal antibody either for 2 h at 37°C or overnight at 4°C. Following primary antibody incubation, cells were treated with fluorophore-conjugated secondary antibody (goat anti-mouse IgG, Alexa Fluor 488) for 1 h at 37°C. Nuclei were counterstained with DAPI for 10 min at room temperature protected from light. Fluorescence microscopy was performed to examine the subcellular distribution and expression levels of PRRSV N protein. Stained cell monolayers were visualized under 4 × , 10 × , and 20 × objective lenses using an epifluorescence microscope. […]

PRRSV = assay: Antiviral assay against PRRSV, both strains (HP-PRRSV-GFP and NADC30) taken together; type: cell-based, porcine reproductive and respiratory syndrome virus
Protocol: as §3, §4, §5, §6, §7, §8

HP-PRRSV-GFP = assay: Antiviral assay (TCID50, RT-qPCR, IFA) against HP-PRRSV-GFP strain in Marc-145 and PAM cells; type: cell-based, porcine reproductive and respiratory syndrome virus
Protocol: as §3, §4, §5, §6, §7, §8

[3] = Marc-145 and PAM cells, 400 μM MV
[4] = Marc-145 and PAM cells, MV ≤ 200 μM
[5] = pre-treatment, 400 μM MV, both cell types, vs untreated controls, P < 0.01

SMILES: C[C@H](CC[C@@H](O[C@@H]1O[C@H](CO[C@@H]2O[C@H](CO)[C@@H](O)[C@H](O)[C@H]2O)[C@@H](O)[C@H](O)[C@H]1O[C@@H]1O[C@H](CO)[C@@H](O)[C@H](O)[C@H]1O)C(C)(C)O)[C@H]1CC[C@@]2(C)[C@@H]3CC=C4[C@@H](CC[C@H](O[C@@H]5O[C@H](CO[C@@H]6O[C@H](CO)[C@@H](O)[C@H](O)[C@H]6O)[C@@H](O)[C@H](O)[C@H]5O)C4(C)C)[C@]3(C)[C@H](O)C[C@]12C [MV, Mogroside V]
- cell viability ([1]; PAM cells, 400 μM MV): exceeded 75%
- IC50 ([1]; PAM cells, 24 h, read-out: IC50 (cytotoxicity)): 577 µM
- IC50 ([1]; PAM cells, 48 h, read-out: IC50 (cytotoxicity)): 599 µM
- IC50 ([1]; PAM cells, 72 h, read-out: IC50 (cytotoxicity)): 704 µM
- IC50 ([1]; PAM cells, 96 h, read-out: IC50 (cytotoxicity)): 582 µM
- IC50 ([1]; all IC50 values, Marc-145 and PAM cells, 24-96 h, read-out: IC50 values, all): ≥ 577 µM
- pro-inflammatory cytokine storm, such as excessive TNF-α secretion [2]: no evidence of a pro-inflammatory cytokine storm
- IL-1 gene expression ([2]; RT-qPCR): significantly upregulates
- IL-1β gene expression ([2]; RT-qPCR): significantly upregulates
- IL-2 gene expression ([2]; RT-qPCR): significantly upregulates
- IL-8 gene expression ([2]; RT-qPCR): significantly upregulates
- IL-18 gene expression ([2]; RT-qPCR): significantly upregulates
- cell viability (Marc-145 cells; Marc-145 cells, 400 μM MV): exceeded 75%
- IC50 (Marc-145 cells; Marc-145 cells, 24 h): 686 µM
- IC50 (Marc-145 cells; Marc-145 cells, 48 h): 756 µM
- IC50 (Marc-145 cells; Marc-145 cells, 72 h): 756 µM
- IC50 (Marc-145 cells; Marc-145 cells, 96 h): 760 µM
- maximum safe drug concentration (Marc-145 cells; PAM and Marc-145 cells): 400 µM
- enhancement in mRNA inhibition, 400 μM vs 200 μM (NADC30 strain; Marc-145 and PAM cells): 49 percentage-point
- improvement in viral titer inhibition, 400 μM vs 200 μM (NADC30 strain; Marc-145 and PAM cells): 43 percentage-point
- average mRNA inhibition rate (NADC30 strain; [3]): > 94%
- average viral titer inhibition rate (NADC30 strain; [3]): > 98%
- average mRNA inhibition rate (NADC30 strain; [4]): below 45%
- average viral titer inhibition rate (NADC30 strain; [4]): below 55%
- viral titers (NADC30 strain; Marc-145 cells, 400 μM MV): below the detection threshold
- viral titers (NADC30 strain; PAM cells, 400 μM MV (CPE in only two replicate wells)): approached the lower detection limit
- PRRSV N protein expression (IFA) (NADC30 strain; 400 μM MV, P < 0.01): significantly reduced
- PRRSV N protein expression (IFA) (NADC30 strain; 100 and 200 μM MV): no statistically significant effects
- inhibition rate for viral titers (PRRSV; 200 μM MV, Marc-145 and PAM cells, mean values across all treatment groups): 43%
- maximal inhibition of viral titers (PRRSV; 400 μM MV): up to 100%
- greater suppression of viral mRNA, high- vs low-concentration group (PRRSV; 400 μM vs 200 μM MV): 51%
- viral fluorescence intensity (IFA) (PRRSV; Marc-145 cells, pre-treatment, 400 μM MV, P < 0.01): markedly diminished
- PRRSV N protein expression (IFA) (PRRSV; Marc-145 or PAM cells, 400 μM MV, post-infection and co-treatment regimens): no detectable PRRSV N protein expression
- viral replication in cells (PRRSV; co-treatment, 400 μM MV, P < 0.01): markedly suppressed
- viral titers (PRRSV; post-treatment (1 h post-infection), 400 μM MV, Marc-145 and PAM cells): undetectable levels
- viral mRNA copies (PRRSV; post-treatment (1 h post-infection), 400 μM MV, Marc-145 and PAM cells, P < 0.01): significantly reduced
- PRRSV mRNA levels (PRRSV; [5]): significantly reduced
- viral titers (PRRSV; [5]): significantly reduced
- increase in mRNA inhibition, 400 μM vs 200 μM (HP-PRRSV-GFP; Marc-145 and PAM cells): 53 percentage-point
- increase in viral titer inhibition, 400 μM vs 200 μM (HP-PRRSV-GFP; Marc-145 and PAM cells): 52 percentage-point
- average mRNA inhibition rate (HP-PRRSV-GFP; [3]): exceeding 95%
- average viral titer inhibition rate (HP-PRRSV-GFP; [3]): exceeding 95%
- average mRNA inhibition rate (HP-PRRSV-GFP; [4]): below 42%
- average viral titer inhibition rate (HP-PRRSV-GFP; [4]): below 43%
- viral titers (HP-PRRSV-GFP; Marc-145 cells, co-treatment, 400 μM MV): below the detection threshold
- viral titers (HP-PRRSV-GFP; PAM cells, co-treatment, 400 μM MV): below the detection threshold
- viral mRNA copies (HP-PRRSV-GFP; PAMs, pre-treatment, 200 μM MV, P < 0.05): significantly suppressed
- viral titers (HP-PRRSV-GFP; PAMs, pre-treatment, 200 μM MV, P > 0.05): no significant reduction
